Assay results: patent publication US20160340656A1, “PEPTIDES DERIVED FROM GSE 24.2 FOR TREATING DISEASES CAUSED BY OXIDATIVE STRESS AND DAMAGE TO DNA” (CONSEJO SUPERIOR DE INVESTIGACIONES CIENTÍFICAS (CSIC), priority 2013, published 2016)

Tests used:
IL6 = assay: Expression of proinflammatory cytokine IL6 in AT719-P cells; format: cell-based, human; conditions: relative to β-actin
Protocol: (§1) FIG. 12. Levels of expression of proinflammatory cytokines in ataxia telangiectasia cells after expressing peptides GSE24.2 and GSE4. AT719-P AT cells were infected with a lentiviral vector expressing GSE24.2, GSE4 or a GFP empty vector and three weeks later the RNA was extracted and after obtaining the corresponding cDNA, the levels of expression of the proinflammatory cytokines IL6 and IL8 were determined. AT736C cells were used as a control. The levels of expression of the gene β-actin were measured as control of expression. The results are expressed as the relative increase in the number of times of expression of each of the genes compared to β-actin, considering the levels of expression of AT736C cells as 1.
(§2) As the peptide denominated GSE4 was smaller than the peptides with ability to repair telomerase activity, we studied if it had the same activity as peptide GSE24.2 for attenuating oxidative stress, expression of proinflammatory cytokines and repairing the senescence in ataxia telangiectasia cells. […] Finally, given that the increase in expression of the interleukins IL6 and IL8 are associated with a secretory phenotype linked to senescence in ataxia telangiectasia, we evaluated the ability of both peptides GSE24.2 and GSE4 to reduce senescence by evaluating senescence-associated β-galactosidase activity (SA-beta-Gal) (FIG. 13).

AT719-P cells = assay: Oxidative stress (ROS by DHE, flow cytometry) in AT719-P cells expressing GSE24.2 or GSE4; format: cell-based, human; conditions: three weeks after infection
Protocol: FIG. 11. Determination of oxidative stress levels in ataxia telangiectasia cells after expressing the peptides GSE24.2 and GSE4. AT719-P cells were infected with a lentiviral vector expressing GSE24.2, GSE4 or a GFP empty vector and three weeks later loaded with the DHE reagent that detects levels of reactive oxygen species (ROS). AT736C cells were used as a control. The relative fluorescence of the four cell lines and the proportion of cells with maximum intensity were determined by flow cytometry at wavelengths of 518 nm absorption and 605 nm emission. The data are shown as relative percentage of cells that emit at this wavelength.
as §2

AT2078 AT cells = assay: Senescence-associated β-galactosidase activity in AT cells; format: cell-based, human; conditions: 3 days or eight days after infection
Excerpt: FIG. 13. Determination of senescence of AT cells after expressing peptides GSE24.2 and GSE4: AT2078 AT cells were infected with a lentiviral vector expressing GSE24.2, GSE4 or a GFP empty vector and 3 days or eight days later they were fixed to determine the expression of the enzyme β-galactosidase acid associated with senescence (senescence-associated β-galactosidase). Control C-1787 cells were used as the negative control. The percentage of cells expressing β-galactosidase from the total cells per field was determined. 200 cells per cell type were evaluated and the results grouped into cells showing no activity (βgal-, in division) and senescent cells (β-gal+).
as §2

HeLa cells = assay: Internalisation of fluorescein-labelled peptides, confocal fluorescence microscopy; format: cell-based
Protocol: (§3) FIG. 21. Transfection of peptides GSE4 and GSE4NLS1 in HeLa cells. Peptides GSE4 and GSE4NLS1 (SEQ ID No. 7) labelled with fluorescein and obtained by chemical synthesis were transfected into HeLa cells using the Proteojuice reagent and viewed in a confocal fluorescence microscope at 9, 24 and 48 hours after transfection.
as §3, with “22. Internalisation” for “21. Transfection”, “added to the culture medium of” for “transfected into”, “cells” for “cells using the Proteojuice reagent”
Given the ability of sequence NLS1 to contribute to the activity of GSE24.2, a synthetic peptide into which this sequence was placed in the 3′ region of peptide GSE4 was constructed as this was the peptide for which the greatest telomerase activation was obtained. The peptides obtained by chemical synthesis were labelled with fluorescein to facilitate their visualisation in a fluorescence microscope. Two experiments were performed in parallel, in one the peptides were transfected using Proteojuice reagent and in the other they were added directly to the culture medium. […] An important difference observed was that when the peptides were added directly to the culture medium, the peptide entered into a higher number of cells than when Proteojuice was used. The reagent provided greater effectiveness for internalisation but into a small number of cells.

IL8 = assay: Expression of proinflammatory cytokine IL8 in AT719-P cells; format: cell-based, human; conditions: relative to β-actin
Protocol: as §1, §2

[1] = test system: telomerase activity in VA13 cells; assay: Telomerase activity (TRAP assay) in VA13 cells after peptide transfection; format: cell-based; conditions: 8 μg peptide
Protocol: FIG. 10. Determination of telomerase activity in VA13 cells after transfection of the peptides GSE4 and GSE5. In order to determine the effect of expression of peptides GSE4 and GSE5, VA13 cells were transfected through lipofection and 24 hours later a TRAP assay was performed for telomerase activity.
The other way of quantifying the activity of peptide GSE4 was to evaluate its ability to increase telomerase activity in VA13 cells. To do this, these cells were transfected with 8 μg of the two peptides GSE4 and GSE5. […], the cells were processed to test the telomerase activity by the TRAP method.

[2] = test system: p38 MAP kinase (phosphorylated on Thr180/Try182) in AT719 cells; assay: Levels of phosphorylated p38 by Western blot in AT cells; format: cell-based, human; conditions: three weeks after infection, control AT736 = 1
Excerpt: FIG. 4. Determination of the levels of phosphorylation of p38 in AT cells: AT719-P AT cells were infected with a lentiviral vector expressing GSE24.2 or a GFP empty vector and three weeks later protein extracts were obtained. AT719-P AT cells infected with GSE24.2 were also used and the population with the maximum fluorescence was selected using a sorter (AT AT719-P GSE24.2 sorter). AT736C cells were used as a control. The proteins were resolved on polyacrylamide gels and transferred to nitrocellulose membranes. The membrane was hybridised with a polyclonal antibody against the protein p38 phosphorylated on Thr180/Try182 and non-phosphoryated protein as a loading control. The relative values between the phosphorylated and non-phosphorylated proteins obtained (using the NIH-Image program) for the control cell line were considered as 1 and the others referred to it.
One of the characteristics of AT patient cells is a higher activation of p38 MAP kinase due to the failure of function of the ATM protein. This increase in activation of p38 triggers the process of cell death in AT cells and therefore a reduction in the number of neuronal cells. […] The signal obtained in both hybridisations was quantified with the NIH-Image program and relative values between the phosphorylated and non-phosphorylated proteins obtained for the control cell line were considered as 1.

**Q.** With GFINLDKPSNP [GSE4] as the sequence, how does the “reduction of levels of expression of IL6” value (IL6) read?
**A.** Its value is 80%.

**Q.** What about the “reduction of levels of free radicals” value (AT719-P cells) of the same sequence?
**A.** The value was 50%.

**Q.** What about the “senescence: percentage of cells positive for beta-galactosidase activity” value (AT2078 AT cells) of the same sequence?
**A.** Its value is “reduced the percentage of positive cells for beta-galactosidase activity progressively over time”.

**Q.** And the entry into cells (HeLa cells; peptide simply added to the culture medium)?
**A.** Its entry into cells is “entered the cells”.

**Q.** And the entry into cells (HeLa cells; transfected using Proteojuice reagent)?
**A.** The entry into cells was “entered the cells”.

**Q.** And the “reduction of levels of expression of IL8” value (IL8)?
**A.** Its value is 90%.

**Q.** What about the “reactivation of telomerase activity” value [1] of the same sequence?
**A.** The value was “much higher activity in reactivating telomerase activity”.

**Q.** For “GFINLDKPSNPSSHEVVAWIRRILRVEKTGHSGTLDPKVTGCLIVCIERATRLVK (GSE24.2; listed as Homo sapiens) [55-amino-acid peptide corresponding to the protein dyskerin; known from WO2007/090911]”, which “reduction of levels of free radicals” value (AT719-P cells) is on record?
**A.** Its value is about 50%.

**Q.** And the “senescence: percentage of cells positive for beta-galactosidase activity” value (AT2078 AT cells)?
**A.** The value was “reduced the percentage of positive cells for beta-galactosidase activity progressively over time”.

**Q.** And the “phosphorylated / non-phosphorylated p38 relative value” [2]?
**A.** The value was “reduced significantly to levels similar to control cells”.

**Q.** What about the “reduction of levels of expression of IL8” value (IL8) of the same sequence?
**A.** The value was “in the same range”.
